Legend:
[1] = system: Swiss I.C.R. albino mice; assay: Chemical analgesia, acetic acid writhing technique in mice; type: in vivo; details: 25 mg/kg, intraperitoneal, 30 minutes before 0.25 ml of 1% acetic acid; counted 20 minutes later; control 121.5 ± 7.184
Description: The analgesic effect was studied in Swiss I.C.R. albino mice with the acetic acid writhing technique. Batches of 10 mice were made.
The products in study were administered intraperitoneally, and 30 minutes later 0.25 ml of 1% acetic acid were injected intraperitoneally. A batch of control animals received only the acetic acid. Twenty minutes following administration of the acetic acid, the number of writhes in each mouse is counted.

[2] = system: Swiss I.C.R. albino mice; assay: Thermal analgesia, 55° C. "hot plate" technique in mice; type: in vivo; details: 30 mg/kg, intraperitoneal, 30 minutes before 55° C. hot plate; control 38 ± 4.253
Description: The thermal analgesic effect was studied in Swiss I.C.R. albino mice. The 55° C. "hot plate" technique was used. Batches of 10 mice were made.
The products in study were administered intraperitoneally and after 30 minutes the mice were placed on the "hot plate", note having been made, in seconds, of the time it took them to jump. Batches of control animals were injected with only distilled water.

[3] = Acute toxicity in mice, intraperitoneal, deaths counted 48 hours after treatment (Litchfield-Wilcoxon); parameters: species or system Swiss I.C.R. albino mice; details: mouse, in vivo, ip, deaths at 48 hours, Litchfield-Wilcoxon test
Description: Acute toxicity study was made in Swiss I.C.R. albino mice of both sexes of 30±2 g of weight, kept without food for 24 hours prior to the experiment. Ambient temperature and relative humidity were kept constant. The products were administered intraperitoneally, and 48 hours after treatment the number of deaths was counted. Calculation of the lethal dose (LD50) was made by the Litchfield-Wilcoxon test.

For CCCCCc1ccnc(C(=O)c2ccsc2)c1C [Product I, 3-thienyl-3-methyl-4-pentyl-2-pyridyl-ketone], the “No. of writhes (mean ± S.E.M.)” value [1] was 35.75, the “Jumping time (mean ± S.E.M.)” value [2] was 96.7 see and the LD50 at 48 h [3] was 718 mg/kg.
For CCC(=O)O[C@](Cc1ccccc1)(c1ccccc1)[C@H](C)CN(C)C [Dextropropoxyphene, dextropropoxyphene], the “No. of writhes (mean ± S.E.M.)” value [1] was 62.8, the “Jumping time (mean ± S.E.M.)” value [2] was 83.7 see and the LD50 at 48 h [3] was 140 mg/kg.

From patent US4172894A, “3-Thienyl-3-methyl-4-pentyl-2-pyridyl-ketone” (Laboratories Made, S.A., priority 1977, dated 1979)
